Results from the SangsterLogP compilation.

assay: method code SF-AS, from DOI: 10.1002/qsar.19900090404

Row | logP | SMILES
1 | -0.03 | CC(=O)Nc1cnccn1
2 | 0.58 | CN(C)c1ccncn1
3 | -0.92 | NC(=O)c1cncnc1
4 | 0.52 | CCOC(=O)c1cncnc1
5 | 1.07 | CN(C)c1ncccn1
6 | 1.17 | CSc1cnccn1
7 | 0.97 | CCOc1ccncn1
8 | 0.46 | CN(C)c1cncnc1
9 | 0.03 | CC(=O)Nc1ccncn1
10 | -0.25 | Nc1ccncn1
11 | 0.56 | CCOc1cncnc1
12 | -0.03 | Fc1cncnc1
13 | 0.01 | Cc1cncnc1
14 | 0.73 | COc1cnccn1
15 | -0.22 | CC(=O)Nc1cncnc1
16 | 0.07 | COc1cncnc1
17 | -0.32 | Cc1ccnnc1
18 | 1.28 | CCOc1cnccn1
19 | 0.29 | Fc1cnccn1
20 | 0.7 | Clc1cnccn1
21 | 0.54 | COc1ccncn1
22 | 0.03 | COC(=O)c1cncnc1
23 | 0.2 | CC(=O)c1cnccn1

The next lines start with the compound.

Row | SMILES | logP
24 | COc1cccnn1 | 0.08
25 | CCOC(=O)c1ccnnc1 | 0.23
26 | CCOc1ccccn1 | 1.81
27 | CCCOc1cnccn1 | 1.84
28 | COC(=O)c1ccncn1 | -0.27
29 | CCOc1ncccn1 | 0.74
30 | CSc1ncccn1 | 1.01
31 | COC(=O)c1ccnnc1 | -0.27
32 | N#Cc1cnccn1 | -0.01
33 | CCCOc1ccccn1 | 2.38
34 | NC(=O)c1cnccn1 | -0.5
35 | N#Cc1ccnnc1 | -0.63
36 | NC(=O)c1ncccn1 | -1.2
37 | CCOc1ccnnc1 | 0.2
38 | CCOC(=O)c1cnccn1 | 0.28
39 | COC(=O)c1ncccn1 | -0.71
40 | COc1ncccn1 | 0.23

Row | SMILES | logP
41 | CCOC(=O)c1ncccn1 | -0.31
42 | CC(=O)Nc1ccnnc1 | -0.41
43 | Clc1ncccn1 | 0.36
44 | NC(=O)c1ccnnc1 | -0.96
45 | Nc1ccnnc1 | -0.53
46 | CCOc1cccnn1 | 0.63
47 | NC(=O)c1cccnn1 | -0.73
48 | Cc1cccnn1 | -0.35
49 | NC(=O)c1ccncn1 | -0.68
50 | Clc1cccnn1 | 0.1
51 | Fc1ccccn1 | 0.84
52 | N#Cc1ncccn1 | -0.31
53 | Cc1ncccn1 | -0.05
54 | COC(=O)c1cccnn1 | -0.43
55 | Fc1ncccn1 | 0.02
56 | CCc1ccccn1 | 1.6
